B1: DAT (hDAT) (Homo sapiens; D436A) (protein)
chain: MSKSKCSVGLMSSVVAPAKEPNAVGPKEVELILVKEQNGVQLTSSTLTNPRQSPVEAQDRETWGKKIDFLLSVIGFAVDLANVWRFPYLCYKNGGGAFLVPYLLFMVIAGMPLFYMELALGQFNREGAAGVWKICPILKGVGFTVILISLYVGFFYNVIIAWALHYLFSSFTTELPWIHCNNSWNSPNCSDAHPGDSSGDSSGLNDTFGTTPAAEYFERGVLHLHQSHGIDDLGPPRWQLTACLVLVIVLLYFSLWKGVKTSGKVVWITATMPYVVLTALLLRGVTLPGAIDGIRAYLSVDFYRLCEASVWIDAATQVCFSLGVGFGVLIAFSSYNKFTNNCYRDAIVTTSINSLTSFSSGFVVFSFLGYMAQKHSVPIGDVAKDGPGLIFIIYPEAIATLPLSSAWAVVFFIMLLTLGIDSAMGGMESVITGLIAEFQLLHRHRELFTLFIVLATFLLSLFCVTNGGIYVFTLLDHFAAGTSILFGVLIEAIGVAWFYGVGQFSDDIQQMTGQRPSLYWRLCWKLVSPCFLLFVVVVSIVTFRPPHYGAYIFPDWANALGWVIATSSMAMVPIYAAYKFCSLPGSFREKLAYAIAPEKDRELVDRGEVRQFTLRHWLKV

What was measured:
DAT (hDAT) = biological target: T1, DAT (hDAT) (Homo sapiens, UniProt Q01959); conditions: read-out: DA Km; 130 mM NaCl, pH 7.4; 6 nM [3H]DA plus unlabelled DA; apparent affinity for uptake
T1 construct: gene SLC6A3

[1] = substrate: NCCc1ccc(O)c(O)c1; experiment: cells, lysate or membranes; conditions: 130 mM NaCl, pH 7.4, 6 nM [3H]DA plus unlabelled DA, apparent affinity for uptake

T1 sequence (Q01959 whole entry): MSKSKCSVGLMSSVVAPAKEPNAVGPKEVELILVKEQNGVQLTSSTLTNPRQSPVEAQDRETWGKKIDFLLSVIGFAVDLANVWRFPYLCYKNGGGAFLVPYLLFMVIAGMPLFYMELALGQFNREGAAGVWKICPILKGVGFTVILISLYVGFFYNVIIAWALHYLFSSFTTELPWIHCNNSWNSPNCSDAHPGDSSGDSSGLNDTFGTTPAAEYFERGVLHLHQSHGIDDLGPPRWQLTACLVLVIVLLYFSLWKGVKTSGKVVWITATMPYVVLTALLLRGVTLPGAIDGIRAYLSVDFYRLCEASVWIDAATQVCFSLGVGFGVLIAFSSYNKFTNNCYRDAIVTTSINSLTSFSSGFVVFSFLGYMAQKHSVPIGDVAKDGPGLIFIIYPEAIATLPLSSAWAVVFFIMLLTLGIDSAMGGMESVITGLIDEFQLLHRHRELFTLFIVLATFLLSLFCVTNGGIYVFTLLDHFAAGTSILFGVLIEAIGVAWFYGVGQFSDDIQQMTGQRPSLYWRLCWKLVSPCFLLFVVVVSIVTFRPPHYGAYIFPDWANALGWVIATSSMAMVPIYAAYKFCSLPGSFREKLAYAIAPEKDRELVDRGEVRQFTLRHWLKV

| Molecule | Km (DAT (hDAT)) [µM] | Km [1] |
| --- | --- | --- |
| NCCc1ccc(O)c(O)c1 [dopamine] | 1.2 | – |
| B1 | – | 0.15 [0.13;0.18] μM |

Reference: PMC4447972, “Mechanism of the Association between Na^+ Binding and Conformations at the Intracellular Gate in Neurotransmitter:Sodium Symporters” (The Journal of Biological Chemistry, 2015)
